Laboratory results from US20170253581A1, “SUBSTITUTED HETEROCYCLES AS c-MYC TARGETING AGENTS” (Northwestern University, priority 2016, published 2017).

What was measured:
[1] = Pharmacokinetics in mice after intravenous dosing; format: in vivo; settings: 5 mg/kg intravenously
Method: The pharmacokinetics of NUCC-176242 and NUCC-176248 were studied in mice by administering a dose of 5 mg/kg intravenously and measuring the plasma concentration versus time.

Myc/Max binding to DNA = Myc/Max binding to DNA (Homo sapiens, UniProt P01106); assay: Electrophoretic mobility shift assay (EMSA) of Myc/Max binding to DNA; format: biochemical; settings: for remaining activity at 100 µM: read-out: Bound DNA (%) (100uM); for remaining activity at 200 µM: 200 uM test compound, read-out: Bound DNA (%) (200uM); for remaining activity at 50 µM: read-out: Bound DNA (%) (50uM)
Sequence of Myc/Max binding to DNA (P01106 whole entry): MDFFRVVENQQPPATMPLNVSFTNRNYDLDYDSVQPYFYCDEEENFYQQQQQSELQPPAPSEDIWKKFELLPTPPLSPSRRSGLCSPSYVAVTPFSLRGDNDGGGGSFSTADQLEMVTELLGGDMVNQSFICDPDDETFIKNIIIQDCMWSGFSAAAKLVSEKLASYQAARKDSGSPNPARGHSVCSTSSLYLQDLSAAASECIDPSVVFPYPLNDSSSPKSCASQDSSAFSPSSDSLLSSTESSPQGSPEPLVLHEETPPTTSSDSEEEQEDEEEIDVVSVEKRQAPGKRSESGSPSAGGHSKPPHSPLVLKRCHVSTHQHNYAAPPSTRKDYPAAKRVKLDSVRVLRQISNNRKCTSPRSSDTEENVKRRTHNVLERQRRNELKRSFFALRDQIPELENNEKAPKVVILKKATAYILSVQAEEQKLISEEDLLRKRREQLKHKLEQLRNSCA
Outline: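 Electrophoretic mobility shift assay of Myc/Max binding to DNA. Compounds tested at 200 μM, 100 μM and 50 μM.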

[2] = tested on: wild type and Myc knockout rat fibroblasts; assay: Growth inhibition on wild type and Myc knockout rat fibroblasts; format: cell-based; settings: FIG. 3; for selectivity of growth inhibition for Myc WT over Myc KO cells: wild type vs Myc knockout rat fibroblasts
Text: We tested the top 13 active compounds in the first screen assay. […] More than half of the tested compounds show better growth inhibitory effect on Myc WT compared to Myc KO cells.

[3] = In vitro metabolism with mouse liver microsomes and mouse S9 fraction; format: in vitro ADME; settings: compared with NUCC-176248
Method: In vitro metabolism of NUCC-176242 and NUCC-176248 were tested using mouse liver microsomes and a mouse S9 fraction.

[4] = tested on: DNA damage (rH2AX staining); assay: rH2AX staining assay for DNA damage; format: cell-based
Method: Min9 (NUCC-0176234) was also tested for its ability to cause DNA damage in an rH2AX staining assay. We would not expect cMyc-targeting agents to produce significant DNA damage. Compounds that act directly against DNA such as doxorubicin do however. […] (See FIG. 6).

[5] = tested on: cMyc wild-type (WT) and a cMyc KO line; assay: Cell viability assay against cMyc WT and cMyc KO line; format: cell-based; settings: FIG. 4
Method: Min9 (NUCC-0176234) was also tested in a cell viability assay against a cMyc wild-type (WT) and a cMyc KO line.

Structure (SMILES) | remaining activity at 100 µM (Myc/Max binding to DNA; EMSA, 100 uM test compound) | further results
CCc1ccc(Oc2c(-c3ccc(OCc4ccc(Cl)cc4)cc3O)nn(C)c2C(F)(F)F)cc1 [NUCC-0176248] | 49% | in vivo metabolism (plasma concentration versus time) [1]: correlated well with the observed in vitro metabolism; IC50 (Myc/Max binding to DNA): 96 µM; remaining activity at 200 µM (Myc/Max binding to DNA; EMSA): 6%; effective concentration (dose with the greatest selectivity, growth inhibition Myc WT vs KO) [2]: 6 µM; selectivity of growth inhibition for Myc WT over Myc KO cells [2]: high specificity
CCc1ccc(Oc2c(-c3ccc(OCc4ccncc4)cc3O)n[nH]c2C(F)(F)F)cc1 [NUCC-0176250] | – | remaining activity at 200 µM (Myc/Max binding to DNA; EMSA): 57%; effective concentration (dose with the greatest selectivity, growth inhibition Myc WT vs KO) [2]: 50 µM; selectivity of growth inhibition for Myc WT over Myc KO cells [2]: great selectivity
Oc1cc(OCc2ccc(Cl)cc2)ccc1-c1cc(C(F)(F)F)nc(-c2cccc(C(F)(F)F)c2)n1 [compound 0200500] | 109% | remaining activity at 50 µM (Myc/Max binding to DNA; EMSA, 50 uM test compound): 100%
Cn1nc(-c2ccc(Nc3ccc4c(c3)OCO4)cc2O)cc1C(F)(F)F [compound 0200562] | 77% | remaining activity at 50 µM (Myc/Max binding to DNA; EMSA, 50 uM test compound): 101%
CCc1ccc(Oc2c(-c3ccc(OCc4ccc(Cl)cc4)cc3O)n[nH]c2CC)cc1 [compound 0196282] | 87% | –
Oc1cc(OCc2ccc(Cl)cc2)ccc1-c1cc(C(F)(F)F)[nH]n1 [compound 0196313] | 1% | –
COc1ccc(-c2c(-c3ccc(O)cc3O)n[nH]c2C(F)(F)F)cc1OC [compound 0200496] | 81% | remaining activity at 50 µM (Myc/Max binding to DNA; EMSA, 50 uM test compound): 98%
Oc1cc(OCc2ccc(Cl)cc2)ccc1-c1n[nH]c(C(F)(F)F)c1-c1ccc(C(F)(F)F)cc1 [compound 0200725] | 98% | –
Oc1cc(Nc2ccc(Cl)cc2)ccc1-c1cc(C(F)(F)F)[nH]n1 [compound 0200679] | – | Bound DNA (%) (50uM) (Myc/Max binding to DNA; EMSA, 50 uM test compound): 79%; Bound DNA (%) (100uM) (Myc/Max binding to DNA; EMSA, 100 uM test compound): 38%
Cn1cc(C(F)(F)F)c(-c2ccc(OCc3ccc(Cl)cc3)cn2)n1 [compound 0200741] | 103% | –
Cn1nc(C(F)(F)F)c(-c2ccc(C#N)cc2)c1-c1ccc(OCc2ccc(Cl)cc2)cc1O [compound 0198392] | 54% | –
Cn1nc(-c2ccc(OCc3ccc(Cl)cc3)cc2O)c(-c2ccc(F)c(C(F)(F)F)c2)c1C(F)(F)F [compound 0200736] | 86% | –
Cc1ccccc1-c1cn(C)nc1-c1ccc(OCc2ccc(Cl)cc2)cc1O [compound 0198356] | 118% | –
Cn1nc(C(F)(F)F)c(-c2ccccc2OC(F)(F)F)c1-c1ccc(OCc2ccc(Cl)cc2)cc1O [compound 0198410] | 44% | –
Cc1cc(C)cc(-c2cnn(C)c2-c2ccc(OCc3ccc(Cl)cc3)cc2O)c1 [compound 0198354] | 85% | –
Cc1ccccc1-c1c[nH]nc1-c1ccc(OCc2ccc(Cl)cc2)cc1O [compound 0198355] | 75% | –

Further lines, with some results ahead:

remaining activity at 100 µM (Myc/Max binding to DNA; EMSA, 100 uM test compound) | Structure (SMILES) | further results
36% | CCc1ccc(Oc2c(-c3ccc(OCc4ccc(Cl)cc4)cc3O)n[nH]c2C(F)(F)F)cc1 [NUCC-0176242] | in vivo metabolism (plasma concentration versus time) [1]: correlated well with the observed in vitro metabolism; metabolism by mouse S9 fraction [3]: significantly metabolism by the mouse S9 fraction versus NUCC-176248; IC50 (Myc/Max binding to DNA): 89 µM; remaining activity at 200 µM (Myc/Max binding to DNA; EMSA): 2%
13% | Oc1ccc(OCc2ccc(Cl)cc2)cc1-c1[nH]nc(C(F)(F)F)c1-c1ccc(F)cc1 [compound 0200575] | –
8% | Oc1ccc(-c2n[nH]c(C(F)(F)F)c2-c2cc(C(F)(F)F)cc(C(F)(F)F)c2)c(O)c1 [compound 0200495] | remaining activity at 50 µM (Myc/Max binding to DNA; EMSA, 50 uM test compound): 86%
89% | Cn1nc(C(F)(F)F)cc1-c1cnc(OCc2ccc(Cl)cc2)cn1 [compound 0200692] | remaining activity at 50 µM (Myc/Max binding to DNA; EMSA, 50 uM test compound): 97%
65% | Cn1nc(-c2ccc(OCc3ccc(Cl)cc3)cc2O)c(Oc2cccc(F)c2)c1C(F)(F)F [compound 0196302] | –
118% | Cn1nc(-c2ccc(Nc3ccccn3)cc2O)cc1C(F)(F)F [compound 0200566] | remaining activity at 50 µM (Myc/Max binding to DNA; EMSA, 50 uM test compound): 109%
57% | Cn1nc(C(F)(F)F)c(-c2cccc(C(N)=O)c2)c1-c1ccc(OCc2ccc(Cl)cc2)cc1O [compound 0198402] | –
100% | CCOC(=O)c1[nH]nc(-c2ccc(OCc3ccc(Cl)cc3)cc2O)c1-c1ccc(C#N)cc1 [compound 0200489] | remaining activity at 50 µM (Myc/Max binding to DNA; EMSA, 50 uM test compound): 99%
99% | Cn1nc(-c2ccc(OCc3ccc(Cl)cc3)cc2O)c(-c2ccc(C(F)(F)F)cc2)c1C(F)(F)F [compound 0200727] | –
36% | CCc1ccc(Oc2c(-c3ccc(OCCc4cccc(C(F)(F)F)c4)cc3O)n[nH]c2C(F)(F)F)cc1 [NUCC-0176245] | IC50 (Myc/Max binding to DNA): 95 µM; remaining activity at 200 µM (Myc/Max binding to DNA; EMSA): 0%
56% | CN/N=C(\C)c1ccc(-c2c(C(F)(F)F)nn(C)c2-c2ccc(OCc3ccc(Cl)cc3)cc2O)cc1 [compound 0198396] | –
79% | CCc1ccc(Oc2c[nH]nc2-c2ccc(OCc3cnn(-c4ccccc4)c3)cc2O)cc1 [NUCC-0176234] | IC50 (Myc/Max binding to DNA): 123 µM; remaining activity at 200 µM (Myc/Max binding to DNA; EMSA): 10%; DNA damage [4]: essentially no DNA damage; reduction of cell viability, WT vs KO line [5]: reduces cell viability much more in the WT line than the KO cells
70% | Cn1ncc(-c2ccoc2)c1-c1ccc(OCc2ccc(Cl)cc2)cc1O [compound 0198323] | –
100% | Oc1cc(OCc2ccc(Cl)cc2)ccc1-c1cc(C(F)(F)F)n(Cc2ccccc2)n1 [compound 0200499] | remaining activity at 50 µM (Myc/Max binding to DNA; EMSA, 50 uM test compound): 109%
